From ChEMBL document CHEMBL1154899, “Synthesis and biological evaluation of caffeic acid 3,4-dihydroxyphenethyl ester” (J Nat Prod, 2010)

How the values were obtained:
Assay type in all cases: functional
MCF7 [1] = test: Antiproliferative activity against human MCF7 cells assessed as cell growth at 0.5 uM by SRB assay; settings: read-out: Activity
CCRF-CEM = test: Antiproliferative activity against human CCRF-CEM cells by SRB assay
TK-10 [2] = test: Antiproliferative activity against human TK10 cells assessed as cell growth at 5 uM by SRB assay; settings: read-out: Activity
SF-268 = test: Antiproliferative activity against human SF268 cells by SRB assay
OVCAR-4 [3] = test: Antiproliferative activity against human OVCAR4 cells assessed as cell growth at 50 uM by SRB assay; settings: read-out: Activity
MCF7 [4] = test: Antiproliferative activity against human MCF7 cells assessed as cell growth at 5 mM by SRB assay; settings: read-out: Activity
TK-10 [5] = test: Antiproliferative activity against human TK10 cells assessed as cell growth at 50 uM by SRB assay; settings: read-out: Activity
SK-MEL-5 = test: Antiproliferative activity against human SK-MEL-5 cells assessed as cell growth at 50 uM by SRB assay; settings: read-out: Activity
NCI-H522 = test: Antiproliferative activity against human NCI-H522 cells assessed as cell growth at 5 mM by SRB assay; settings: read-out: Activity
SNB-75 = test: Antiproliferative activity against human SNB75 cells assessed as cell growth at 5 mM by SRB assay; settings: read-out: Activity
HCC 2998 = test: Antiproliferative activity against human HCC2998 cells assessed as cell growth at 5 uM by SRB assay; settings: read-out: Activity
BT-549 = test: Antiproliferative activity against human BT549 cells by SRB assay
SF-295 [6] = test: Antiproliferative activity against human SF295 cells assessed as cell growth at 0.5 uM by SRB assay; settings: read-out: Activity
786-0 [7] = test: Antiproliferative activity against human 786-0 cells assessed as cell growth at 0.5 uM by SRB assay; settings: read-out: Activity
HT-29 = test: Antiproliferative activity against human HT-29 cells assessed as cell growth at 0.5 uM by SRB assay; settings: read-out: Activity
SN12C = test: Antiproliferative activity against human SN12C cells assessed as cell growth at 500 uM by SRB assay; settings: read-out: Activity
MOLT-4 = test: Antiproliferative activity against human MOLT4 cells assessed as cell growth at 5 mM by SRB assay; settings: read-out: Activity
786-0 [8] = test: Antiproliferative activity against human 786-0 cells by SRB assay
HL-60(TB) [9] = test: Antiproliferative activity against human HL-60(TB) cells assessed as cell growth at 500 uM by SRB assay; settings: read-out: Activity
ACHN = test: Antiproliferative activity against human ACHN cells assessed as cell growth at 0.5 uM by SRB assay; settings: read-out: Activity
TK-10 [10] = test: Antiproliferative activity against human TK10 cells by SRB assay
U-251 [11] = test: Antiproliferative activity against human U251 cells assessed as cell growth at 50 uM by SRB assay; settings: read-out: Activity
RXF 393 = test: Antiproliferative activity against human RXF393 cells assessed as cell growth at 50 uM by SRB assay; settings: read-out: Activity
CAKI-1 = test: Antiproliferative activity against human Caki1 cells assessed as cell growth at 500 uM by SRB assay; settings: read-out: Activity
OVCAR-5 = test: Antiproliferative activity against human OVCAR5 cells at 0.5 uM by SRB assay
Malme-3M = test: Antiproliferative activity against human MALME-3M cells by SRB assay
HL-60(TB) [12] = test: Antiproliferative activity against human HL-60(TB) cells assessed as cell growth at 5 mM by SRB assay; settings: read-out: Activity
EKVX = test: Antiproliferative activity against human EKVX cells assessed as cell growth at 0.5 uM by SRB assay; settings: read-out: Activity
IGROV-1 = test: Antiproliferative activity against human IGROV1 cells assessed as cell growth at 0.5 uM by SRB assay; settings: read-out: Activity
OVCAR-4 [13] = test: Antiproliferative activity against human OVCAR4 cells assessed as cell growth at 500 uM by SRB assay; settings: read-out: Activity
TK-10 [14] = test: Antiproliferative activity against human TK10 cells assessed as cell growth at 500 uM by SRB assay; settings: read-out: Activity
T47D [15] = test: Antiproliferative activity against human T47D cells assessed as cell growth at 5 uM by SRB assay; settings: read-out: Activity
LOX IMVI = test: Antiproliferative activity against human LOXIMVI cells assessed as cell growth at 50 uM by SRB assay; settings: read-out: Activity
U-251 [16] = test: Antiproliferative activity against human U251 cells assessed as cell growth at 0.5 uM by SRB assay; settings: read-out: Activity
HL-60(TB) [17] = test: Antiproliferative activity against human HL-60(TB) cells assessed as cell growth at 5 uM by SRB assay; settings: read-out: Activity
DU-145 [18] = test: Antiproliferative activity against human DU145 cells assessed as cell growth at 500 uM by SRB assay; settings: read-out: Activity
SW-620 = test: Antiproliferative activity against human SW620 cells assessed as cell growth at 5 mM by SRB assay; settings: read-out: Activity
DU-145 [19] = test: Antiproliferative activity against human DU145 cells assessed as cell growth at 0.5 uM by SRB assay; settings: read-out: Activity
SF-295 [20] = test: Antiproliferative activity against human SF295 cells assessed as cell growth at 50 uM by SRB assay; settings: read-out: Activity
NCI-H322M = test: Antiproliferative activity against human NCI-H322M cells assessed as cell growth at 0.5 uM by SRB assay; settings: read-out: Activity
HCT-15 = test: Antiproliferative activity against human HCT15 cells assessed as cell growth at 5 uM by SRB assay; settings: read-out: Activity
NCI-H23 = test: Antiproliferative activity against human NCI-H23 cells assessed as cell growth at 0.5 uM by SRB assay; settings: read-out: Activity
T47D [21] = test: Antiproliferative activity against human T47D cells assessed as cell growth at 500 uM by SRB assay; settings: read-out: Activity
[22] = read-out: LC50 (the source's name)
[23] = read-out: pLC50 (the source's name) (converted)

O=C(/C=C/c1ccc(O)c(O)c1)OCCc1ccc(O)c(O)c1
growth at 0.5 µM (MCF7 [1]): 94% | GI50 (CCRF-CEM): 0.75 µM | CC50 (CCRF-CEM; [22]): > 50 µM | TGI (CCRF-CEM; read-out: TGI): 5.33 µM | CC50 (CCRF-CEM; [23]): > 50.1 µM | TGI (CCRF-CEM; read-out: pTGI (converted)): 5.37 µM | growth at 5 µM (TK-10 [2]): 95% | GI50 (SF-268; read-out: GI50): 6.93 µM | CC50 (SF-268; [22]): > 50 µM | TGI (SF-268; read-out: TGI): > 50 µM | GI50 (SF-268; read-out: pGI50 (converted)): 6.61 µM | CC50 (SF-268; [23]): > 50.1 µM | TGI (SF-268; read-out: pTGI): > 50.1 µM | growth at 50 µM (OVCAR-4 [3]): 92% | growth at 5000 µM (MCF7 [4]): 5% | growth at 50 µM (TK-10 [5]): 94% | growth at 50 µM (SK-MEL-5): 102% | growth at 5000 µM (NCI-H522): -30% | growth at 5000 µM (SNB-75): 30% | growth at 5 µM (HCC 2998): 107% | GI50 (BT-549; read-out: GI50): 8.67 µM | CC50 (BT-549; [22]): > 50 µM | TGI (BT-549; read-out: TGI): > 50 µM | GI50 (BT-549; read-out: pGI50 (converted)): 8.32 µM | CC50 (BT-549; [23]): > 50.1 µM | TGI (BT-549; read-out: pTGI): > 50.1 µM | growth at 0.5 µM (SF-295 [6]): 98% | growth at 0.5 µM (786-0 [7]): 97% | growth at 0.5 µM (HT-29): 104% | growth at 500 µM (SN12C): 65% | growth at 5000 µM (MOLT-4): 4% | GI50 (786-0 [8]; read-out: GI50): 13.5 µM | CC50 (786-0 [8]; [22]): > 50 µM | TGI (786-0 [8]; read-out: TGI): > 50 µM | GI50 (786-0 [8]; read-out: pGI50 (converted)): 13.5 µM | CC50 (786-0 [8]; [23]): > 50.1 µM | TGI (786-0 [8]; read-out: pTGI): > 50.1 µM | growth at 500 µM (HL-60(TB) [9]): 37% | growth at 0.5 µM (ACHN): 98% | GI50 (TK-10 [10]; read-out: GI50): 28.1 µM | CC50 (TK-10 [10]; [22]): > 50 µM | TGI (TK-10 [10]; read-out: TGI): > 50 µM | GI50 (TK-10 [10]; read-out: pGI50 (converted)): 28.2 µM | CC50 (TK-10 [10]; [23]): > 50.1 µM | TGI (TK-10 [10]; read-out: pTGI): > 50.1 µM | growth at 50 µM (U-251 [11]): 98% | growth at 50 µM (RXF 393): 135% | growth at 500 µM (CAKI-1): 68% | Activity (OVCAR-5): 94% | GI50 (Malme-3M; read-out: GI50): 18.6 µM | CC50 (Malme-3M; [22]): > 50 µM | TGI (Malme-3M; read-out: TGI): > 50 µM | GI50 (Malme-3M; read-out: pGI50 (converted)): 18.6 µM | CC50 (Malme-3M; [23]): > 50.1 µM | TGI (Malme-3M; read-out: pTGI): > 50.1 µM | growth at 5000 µM (HL-60(TB) [12]): -30% | growth at 0.5 µM (EKVX): 88% | growth at 0.5 µM (IGROV-1): 112% | growth at 500 µM (OVCAR-4 [13]): 58% | growth at 500 µM (TK-10 [14]): 81% | growth at 5 µM (T47D [15]): 102% | growth at 50 µM (LOX IMVI): 98% | growth at 0.5 µM (U-251 [16]): 102% | growth at 5 µM (HL-60(TB) [17]): 85% | growth at 500 µM (DU-145 [18]): 80% | growth at 5000 µM (SW-620): 19% | growth at 0.5 µM (DU-145 [19]): 102% | growth at 50 µM (SF-295 [20]): 87% | growth at 0.5 µM (NCI-H322M): 90% | growth at 5 µM (HCT-15): 88% | growth at 0.5 µM (NCI-H23): 90% | growth at 500 µM (T47D [21]): 71%
